# Test results from ChEMBL document CHEMBL1201862, “PubChem BioAssay data set” (2004).
# Calls of active or inactive are those of the source.
# Experiments:
# [1] = target: T1, Sentrin-specific protease 1 (Homo sapiens, UniProt Q9P0U3); experiment: Dose response confirmation of small molecule inhibitors of the catalytic domain of the SUMO protease, SENP1 in a FRET assay.; assay type: functional; details: read-out: IC50_Mean
# T1 sequence (Q9P0U3 whole entry): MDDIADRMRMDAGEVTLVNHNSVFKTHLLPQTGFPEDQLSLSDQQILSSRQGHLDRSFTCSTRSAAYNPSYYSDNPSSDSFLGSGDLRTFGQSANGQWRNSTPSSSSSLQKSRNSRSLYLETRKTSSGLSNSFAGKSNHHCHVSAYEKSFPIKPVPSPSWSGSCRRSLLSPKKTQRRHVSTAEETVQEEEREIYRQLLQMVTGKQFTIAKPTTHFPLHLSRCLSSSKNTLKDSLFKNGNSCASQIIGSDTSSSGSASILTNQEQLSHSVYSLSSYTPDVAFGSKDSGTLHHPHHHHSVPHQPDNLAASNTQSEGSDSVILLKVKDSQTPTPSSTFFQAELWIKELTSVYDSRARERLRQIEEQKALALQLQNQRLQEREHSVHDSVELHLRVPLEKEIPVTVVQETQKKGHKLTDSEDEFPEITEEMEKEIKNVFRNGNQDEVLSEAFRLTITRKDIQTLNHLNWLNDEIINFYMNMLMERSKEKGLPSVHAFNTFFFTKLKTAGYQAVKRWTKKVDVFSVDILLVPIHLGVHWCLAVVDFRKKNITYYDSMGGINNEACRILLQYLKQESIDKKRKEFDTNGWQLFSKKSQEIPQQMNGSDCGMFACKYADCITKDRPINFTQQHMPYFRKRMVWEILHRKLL
# [2] = target: T1, Sentrin-specific protease 1; experiment: potency of human SENP1 inhibitors, dose response, biochemical, kinetic FRET (AID 651697); assay type: functional; details: read-out: IC50_Mean
# [3] = target: T2, Adenosylmethionine-8-amino-7-oxononanoate aminotransferase (Mycobacterium tuberculosis, UniProt P9WQ81); experiment: Mycobacterium tuberculosis BioA enzyme inhibitor Measured in Biochemical System Using Plate Reader - 2163-02_Inhibitor_Dose_CherryPick_Activity.; assay type: functional, Mycobacterium tuberculosis UT205
# T2 sequence (P9WQ81 whole entry): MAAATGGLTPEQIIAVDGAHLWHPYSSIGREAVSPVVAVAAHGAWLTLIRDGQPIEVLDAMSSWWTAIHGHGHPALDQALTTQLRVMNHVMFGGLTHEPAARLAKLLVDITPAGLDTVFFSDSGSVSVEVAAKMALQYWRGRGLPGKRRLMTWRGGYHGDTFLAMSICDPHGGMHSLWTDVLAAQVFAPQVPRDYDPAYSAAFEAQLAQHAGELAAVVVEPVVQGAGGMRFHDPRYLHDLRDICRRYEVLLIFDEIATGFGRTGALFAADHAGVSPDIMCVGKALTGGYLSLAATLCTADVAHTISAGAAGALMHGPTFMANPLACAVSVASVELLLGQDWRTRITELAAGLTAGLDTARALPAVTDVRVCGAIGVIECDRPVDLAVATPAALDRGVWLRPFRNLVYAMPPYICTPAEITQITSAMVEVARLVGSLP
# [4] = target: T3, Rac GTPase-activating protein 1 (Homo sapiens, UniProt Q9H0H5); experiment: MgcRacGAP GTPase-activating activity inhibitors, confirmation, biochemical, ADP Hunter fluorescence, primary and confirmatory (AID 624330); assay type: functional
# T3 sequence (Q9H0H5 whole entry): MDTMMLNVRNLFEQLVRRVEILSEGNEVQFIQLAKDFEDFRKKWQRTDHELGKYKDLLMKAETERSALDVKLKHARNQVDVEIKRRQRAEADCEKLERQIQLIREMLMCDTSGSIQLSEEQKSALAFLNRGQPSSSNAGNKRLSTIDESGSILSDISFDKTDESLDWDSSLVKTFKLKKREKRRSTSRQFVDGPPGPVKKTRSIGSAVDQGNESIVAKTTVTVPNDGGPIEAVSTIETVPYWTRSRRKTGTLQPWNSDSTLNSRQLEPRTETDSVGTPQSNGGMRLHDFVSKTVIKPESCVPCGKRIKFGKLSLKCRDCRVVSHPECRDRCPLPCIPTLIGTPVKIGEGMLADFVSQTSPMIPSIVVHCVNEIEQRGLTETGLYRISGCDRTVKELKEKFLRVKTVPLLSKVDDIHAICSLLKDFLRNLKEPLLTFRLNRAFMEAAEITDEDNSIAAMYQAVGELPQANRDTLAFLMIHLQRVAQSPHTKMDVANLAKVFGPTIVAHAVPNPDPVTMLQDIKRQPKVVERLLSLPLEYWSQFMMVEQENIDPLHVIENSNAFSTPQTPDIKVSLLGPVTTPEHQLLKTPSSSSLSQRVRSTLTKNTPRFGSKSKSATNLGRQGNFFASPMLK
# [5] = target: T4, Apoptotic protease-activating factor 1 (Homo sapiens, UniProt O14727); assay type: functional
# T4 sequence (O14727 whole entry): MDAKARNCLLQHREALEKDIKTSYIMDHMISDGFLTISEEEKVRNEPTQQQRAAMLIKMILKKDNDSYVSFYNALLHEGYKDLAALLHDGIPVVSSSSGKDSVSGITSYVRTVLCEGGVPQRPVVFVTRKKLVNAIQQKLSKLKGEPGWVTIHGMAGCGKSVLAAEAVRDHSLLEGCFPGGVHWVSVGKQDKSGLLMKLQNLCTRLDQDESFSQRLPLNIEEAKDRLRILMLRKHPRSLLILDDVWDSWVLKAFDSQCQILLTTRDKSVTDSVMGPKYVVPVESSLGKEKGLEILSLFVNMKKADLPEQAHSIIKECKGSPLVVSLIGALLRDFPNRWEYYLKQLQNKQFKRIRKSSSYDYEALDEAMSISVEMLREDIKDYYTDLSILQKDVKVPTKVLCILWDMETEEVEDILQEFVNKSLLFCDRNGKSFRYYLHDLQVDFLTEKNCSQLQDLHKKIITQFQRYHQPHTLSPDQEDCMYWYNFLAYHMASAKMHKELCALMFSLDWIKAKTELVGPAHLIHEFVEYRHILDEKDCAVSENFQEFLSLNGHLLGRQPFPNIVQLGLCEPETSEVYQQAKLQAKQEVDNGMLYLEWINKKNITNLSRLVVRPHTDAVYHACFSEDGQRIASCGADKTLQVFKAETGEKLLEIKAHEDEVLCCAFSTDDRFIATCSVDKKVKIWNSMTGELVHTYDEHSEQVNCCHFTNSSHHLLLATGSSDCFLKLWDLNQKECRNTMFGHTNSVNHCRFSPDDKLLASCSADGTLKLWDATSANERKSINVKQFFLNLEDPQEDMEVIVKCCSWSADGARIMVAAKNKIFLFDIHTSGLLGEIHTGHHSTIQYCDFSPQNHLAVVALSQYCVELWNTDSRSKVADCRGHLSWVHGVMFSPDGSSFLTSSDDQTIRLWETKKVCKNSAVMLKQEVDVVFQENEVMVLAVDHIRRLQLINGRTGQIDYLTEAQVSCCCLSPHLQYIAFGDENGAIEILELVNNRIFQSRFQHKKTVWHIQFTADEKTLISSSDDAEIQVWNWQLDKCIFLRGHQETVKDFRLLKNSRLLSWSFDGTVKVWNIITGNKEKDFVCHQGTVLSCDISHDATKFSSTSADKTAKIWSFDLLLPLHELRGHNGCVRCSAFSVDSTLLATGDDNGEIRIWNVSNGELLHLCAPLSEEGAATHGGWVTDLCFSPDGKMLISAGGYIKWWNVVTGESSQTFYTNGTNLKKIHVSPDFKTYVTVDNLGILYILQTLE
# [6] = NIH-3T3 fibroblast cytotoxicity, dose response, cytotoxicity control, cell-based, fluorescence, Alamar Blue, secondary assay (AID 2327); assay type: functional;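 further: NIH-3T3 mouse fibroblasts cultured with fluconazole at 8 µg/mL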
# [7] = C. albicans growth with fluconazole, confirmation, fluorescence, retest (AID 2467); assay type: functional, cell-based
# [8] = target: T5, DNA repair and recombination protein RAD54-like (Homo sapiens, UniProt Q92698); experiment: inhibitors of human RAD54 branch migration, confirmation, biochemical, fluorescence, cherry-picked samples, dose series (AID 651657); assay type: functional
# T5 sequence (Q92698 whole entry): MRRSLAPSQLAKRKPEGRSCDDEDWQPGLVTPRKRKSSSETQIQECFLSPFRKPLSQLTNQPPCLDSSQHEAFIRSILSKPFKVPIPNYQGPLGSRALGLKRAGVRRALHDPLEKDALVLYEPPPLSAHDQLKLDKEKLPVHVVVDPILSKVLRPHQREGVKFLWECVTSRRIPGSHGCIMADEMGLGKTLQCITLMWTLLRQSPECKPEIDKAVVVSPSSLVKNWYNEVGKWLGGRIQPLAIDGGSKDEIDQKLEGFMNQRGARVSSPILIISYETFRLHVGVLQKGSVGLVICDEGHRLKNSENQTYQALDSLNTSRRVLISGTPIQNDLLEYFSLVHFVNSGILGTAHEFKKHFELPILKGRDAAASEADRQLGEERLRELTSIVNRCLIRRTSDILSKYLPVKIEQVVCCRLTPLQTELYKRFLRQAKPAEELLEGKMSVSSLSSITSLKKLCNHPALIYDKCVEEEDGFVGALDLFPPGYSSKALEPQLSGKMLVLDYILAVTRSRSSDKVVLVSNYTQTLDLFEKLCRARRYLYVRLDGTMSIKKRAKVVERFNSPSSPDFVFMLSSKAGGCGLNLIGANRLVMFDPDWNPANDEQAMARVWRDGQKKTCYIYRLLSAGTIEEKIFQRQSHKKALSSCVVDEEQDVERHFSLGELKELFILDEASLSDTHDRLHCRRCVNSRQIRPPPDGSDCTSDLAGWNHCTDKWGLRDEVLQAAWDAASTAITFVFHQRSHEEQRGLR
# [9] = target: T6, Ubiquitin-conjugating enzyme E2 N (Homo sapiens, UniProt P61088); assay type: functional;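 further: Dose-response confirmation in a TR-FRET assay detecting UBC13-driven polyubiquitin chain formation, inhibition measured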
# T6 sequence (P61088 whole entry): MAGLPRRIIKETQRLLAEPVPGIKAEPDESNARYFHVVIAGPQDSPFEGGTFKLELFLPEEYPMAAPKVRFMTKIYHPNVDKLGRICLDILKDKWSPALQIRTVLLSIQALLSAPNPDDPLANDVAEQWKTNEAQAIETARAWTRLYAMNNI
# INS1 = experiment: beta cell apoptosis inhibitors, cytokine rescue, dose response, luminescence, retest (AID 449756); assay type: functional, cell-based; details: Rattus norvegicus;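 further: cell death triggered by IL-1 beta plus TNF-alpha plus IFN-gamma mixture; protective hits raise ATP signal compared with cytokine alone wells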
# [10] = Luminescence Cell-Based Dose Response HTS to Identify Inhibitors of 5'UTR Stem-Loop Driven Prion Protein mRNA Translation in H4 Neuroglioblastoma Cells. [Related pubchem assays: 1827 (Project Summary), 1813 (Primary HTS)]; assay type: functional
# [11] = microbe, parasite or virus in culture; assay type: functional; details: Mycobacterium tuberculosis
# [12] = inhibitors of firefly luciferase expression or activity, dose response, H4 neuroglioma cells, luminescence (AID 1990); assay type: functional, cell-based
# [13] = inhibitors of SNCA 5'UTR-driven reporter translation, confirmation, H4 neuroglioma cells, luminescence (AID 1988); assay type: functional, cell-based
# [14] = target: ADP-ribosylation factor GTPase-activating protein 1 (Rattus norvegicus, UniProt Q62848); experiment: Fluorescence polarization-based biochemical high throughput dose response screening assay to identify inhibitors of ADP-ribosylation factor GTPase activating protein 1 (ARFGAP1).; assay type: functional
# Sequence of ADP-ribosylation factor GTPase-activating protein 1 (Q62848 whole entry): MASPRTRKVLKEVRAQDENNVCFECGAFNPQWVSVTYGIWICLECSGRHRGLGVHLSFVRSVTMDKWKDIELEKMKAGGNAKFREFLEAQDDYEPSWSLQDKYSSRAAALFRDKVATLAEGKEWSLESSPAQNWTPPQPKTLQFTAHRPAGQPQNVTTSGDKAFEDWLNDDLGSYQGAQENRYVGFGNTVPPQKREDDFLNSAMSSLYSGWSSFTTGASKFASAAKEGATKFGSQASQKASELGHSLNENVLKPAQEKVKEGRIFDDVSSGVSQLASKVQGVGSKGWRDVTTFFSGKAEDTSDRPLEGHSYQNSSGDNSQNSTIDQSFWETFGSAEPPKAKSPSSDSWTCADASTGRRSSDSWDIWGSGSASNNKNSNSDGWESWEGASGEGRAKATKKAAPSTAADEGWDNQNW
# BJ [15] = experiment: cytotoxicity toward BJ-TERT-LT-ST fibroblasts, dose response, cell-based, RAS-independent, luminescence (AID 1935); assay type: functional; details: Homo sapiens;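 further: BJ fibroblasts immortalized with TERT plus LT and ST oncogenes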
# [16] = cytotoxicity toward DRD oncogenic fibroblasts, dose response, cell-based, non-viral oncogenic, luminescence (AID 1934); assay type: functional; details: Homo sapiens
# BJ [17] = experiment: cells; assay type: functional, cell-based; details: Homo sapiens
# BJ [18] = experiment: cytotoxicity toward BJ-TERT fibroblasts, dose response, cell-based, RAS-independent, luminescence (AID 1933); assay type: functional; details: Homo sapiens
# [19] = Counterscreen for inhibitors of Trypanosoma brucei methionyl tRNA synthetase (MetRS): Luminescence-based cell-based high throughput dose response assay to identify compounds that are cytotoxic to Jurkat human T lymphocyte cells.; assay type: functional
structure (smiles),measurement,setting,value
Cc1ccc(NC2=C(C(=O)c3ccccc3)N(C)S(=O)(=O)c3ccccc32)cc1,IC50,[1],15.4 µM (active)
same,IC50,[2],26.2 µM (inactive)
COc1ccc(NC2CCCN(C(=O)c3ccc(C(C)=O)s3)C2)cc1 (stereo not given),AC50,[3],1.99 µM (active)
same,IC50,[4],80.9 µM (active)
Nc1ccc2c(c1)C(=O)N(CC1CCCO1)C2=O (stereo not given),IC50,[1],8.2 µM (active)
same,IC50,[2],11.1 µM (active)
O=C(c1ccc([N+](=O)[O-])o1)N(Cc1nnc(-c2ccccc2Cl)o1)C1CC1,IC50,[5],> 100 µM (inactive)
COc1cc(/C=C/C(=O)Nc2cccnc2)cc(OC)c1OC,EC50,[6],> 160 µM (inactive)
same,EC50,[7],> 38 µM (not active)
same,AC50,[3],0.629 µM (active)
COc1ccc(-c2cc(NC=O)c3ncc(-c4cccc(C(=O)N(C)C)c4)n3c2)cn1,AC50,[3],11.2 µM (active)
COc1ccc2[nH]c(=O)c(CNc3ccccc3OC)cc2c1,IC50,[5],51.4 µM (active)
O=c1[nH]c2cc3ccccc3cc2nc1-c1nnnn1Cc1ccccc1,IC50,[1],7.19 µM (active)
same,IC50,[2],15.8 µM (active)
Nc1c(C(=O)NCCN2CCOCC2)c2nc3ccccc3nc2n1-c1ccccc1,AC50,[8],52 µM (active)
COc1ccc(CNC[C@@H](CCCCN(C)Cc2ccc(OC)cc2)N2C[C@H](c3ccccc3)N(CCc3ccc(Cl)c(Cl)c3)C(=O)C2=O)cc1,IC50,[9],> 20 µM (inactive)
same,AC50,INS1,7.7 µM (active)
same,EC50,[10],> 120 µM (not active)
same,CC50,[11],6.46 µM (active)
same,EC50,[12],> 120 µM (not active)
same,IC50,[5],46.4 µM (active)
same,EC50,[13],9.63 µM (active)
COc1cc(OC)cc(C(=O)Nc2ccccc2-c2nnn(CC(=O)Nc3cc(C)on3)n2)c1,IC50,[14],72.6 µM (inactive)
Nc1nc(/C=C/c2cccnc2)nc(-c2ccccc2O)n1,IC50,[14],165 µM (inactive)
COc1ccc(/C=N/NC(=O)CCn2cnc(-c3ccccc3)c2-c2ccccc2)cc1,EC50,BJ [15],1.75 µM (active)
same,EC50,[16],1.68 µM (active)
same,IC50,[5],25.2 µM (active)
same,EC50,BJ [17],46.3 µM (active)
same,EC50,BJ [18],1.9 µM (active)
O=C(Cc1ccc(Br)cc1)NNC(=O)Nc1ccc(Cl)cc1,IC50,[19],83.3 µM (inactive)
